Measurements taken from patent US8178506B2, “Oligomeric compounds and compositions for use in modulation of small non-coding RNAs” (Regulus Therapeutics Inc., priority 2003, dated 2012).

Tests used:
Format in all cases: cell-based, human
mir-21 pri-miRNA = mir-21 pri-miRNA expression in HeLa cells (real-time RT-PCR)
mir-21 mature miRNA = test: Northern blot of mature mir-21 in HeLa cells; details: 100 nM
Method: In one embodiment, the expression of mir-21 (noted to be expressed at high levels in HeLa cells) was assessed in cells treated with oligomeric compounds. Using the transfection methods previously described, HeLa cells were treated with 100 nM of the uniform 2′-MOE oligomeric compound ISIS Number 327917 (SEQ ID NO: 335) targeting the mir-21 mature miRNA. Total RNA was isolated by lysing cells in 1 mL TRIZOL™ (Invitrogen) using the manufacturer's recommended protocols. […] Real-time RT-PCR analysis was also performed on HeLa cells treated with ISIS 327917 using a primer/probe set specific for the mir-21 pri-miRNA molecule [forward primer=ISIS 339332 ([…]; herein incorporated as SEQ ID NO.: 911), reverse primer-ISIS 339333 (TCGACTGGTGTTGCCATGA; herein incorporated as SEQ ID NO.: 912), and probe=ISIS 339334 ([…]; herein incorporated as SEQ ID NO.: 913)]. Total RNA was quantified using RiboGreen™ RNA quantification reagent (Molecular Probes, Inc. Eugene, Oreg.), expression levels observed for the target were normalized to 5.8S rRNA, and values were expressed relative to an untreated control (UTC).

mir-21 miRNA = test: pGL3-mir-21 sensor luciferase assay in HeLa cells
Source text: In order to assess the ability of miRNAs to bind predicted miRNA binding sites and regulate the expression of the luciferase reporter, in some embodiments, expression systems based on the pGL3-Control (Promega Corp., Madison Wis.) reporter vector and comprising either a mir-15a, mir-21, or a mir-23b miRNA binding site were developed and used in transient transfections of HeLa cells to determine whether the endogenous mir-15a, mir-21, or mir-23b miRNAs, respectively, could repress luciferase reporter gene expression.
The pGL3-mir-21 sensor plasmid was created by cloning the sequence ([…]; SEQ ID NO: 335), representing a sequence complementary to the mir-21 miRNA, into the Xba site of the pGL3-Control plasmid, placing the potential miRNA-binding site in the 3′UTR of the luciferase reporter. This reporter plasmid was used to transfect HeLa cells and it was observed that the endogenous mir-21 miRNA was able to inhibit luciferase expression from the pGL3-mir-21 sensor plasmid. Thus, to further evaluate the ability of the mir-21 miRNA to bind this target site encoded by the pGL3-mir-21 sensor plasmid, and to assess the ability of oligomeric compounds to interfere with mir-21-mediated silencing, pGL3-mir-21 sensor-expressing HeLa cells were treated with varying concentrations (10 nM or 50 nM) of the following oligomeric compounds: ISIS Number 327917 (SEQ ID NO: 335), a phosphorothioate uniform 2′-MOE oligomeric compound; ISIS Number 338697 ([…]; herein incorporated as SEQ ID NO: 524), a uniform 2′-MOE oligomeric compound targeting the mir-21 pri-miRNA molecule; and ISIS Number 328415 (SEQ ID NO: 524), a 2′-MOE 5-10-5 gapmer oligomeric compound targeting the mir-21 pri-miRNA. The uniform 2′-MOE phosphorothioate oligomeric compound ISIS Number 327901 (SEQ ID NO: 319) targeting an unrelated miRNA (mir-143) was used as a negative control. The data are the average of three trials and are presented in Table 44 as percent untreated control (luciferase plasmid only, not treated with oligomeric compound) luciferase expression, normalized to pRL-CMV levels.
In one embodiment, the oligomeric compounds ISIS Number 327917 (SEQ ID NO: 335), the phosphorothioate uniform 2′-MOE targeting mature mir-21; ISIS Number 358768 (SEQ ID NO: 918), the uniform 2′-MOE targeting the mir-21 pri-miRNA which stimulated the largest increase in pri-miRNA expression levels by real time quantitative RT-PCR; and ISIS Number 345382 (SEQ ID NO: 335), the 5-10-7 phosphorothioate 2′-MOE gapmer targeting mature mir-21 were selected for dose response studies in HeLa cells using the luciferase reporter system described in Example 27. ISIS Number 342683 (SEQ ID NO: 790), representing the scrambled nucleotide sequence of an unrelated PTP1B antisense oligonucleotide, was used as a negative control. HeLa cells expressing the pGL3-mir-21 sensor plasmid (described in Example 27) were treated with 1.9, 5.5, 16.7, and 50 nM of these oligomeric compounds, to assess the ability of oligomeric compounds to interfere with endogenous mir-21-mediated silencing of the pGL3-mir-21 sensor plasmid. The data are presented in Table 50 as percent untreated control (luciferase plasmid only, not treated with oligomeric compound) luciferase expression, normalized to pRL-CMV levels.

Sequence: TCAACATCAGTCTGATAAGCTA (chemistry not given here) [ISIS 327917, uniform 2′-MOE PS; targets mir-21]
- increase in levels of the mir-21 pri-miRNA molecule (mir-21 pri-miRNA; HeLa, 100 nM): approximately 2 fold
- levels of the mir-21 pri-miRNA molecule (mir-21 pri-miRNA; HeLa, 100 nM): stimulate an increase in levels of the mir-21 pri-miRNA molecule
- mir-21 pri-miRNA levels, dose response (mir-21 pri-miRNA; HeLa, 25, 50, 100 and 200 nM): dose-responsive induction of mir-21 pri-miRNA levels
- expression levels of the mir-21 mature miRNA (mir-21 mature miRNA): 50 % of those of untreated control cells
- expression of the luciferase reporter, pGL3-mir-21 sensor (mir-21 miRNA; HeLa, 10 nM or 50 nM): de-repressed the expression of the luciferase reporter
- expression of the luciferase reporter, pGL3-mir-21 sensor, dose response (mir-21 miRNA; HeLa, 1.9, 5.5, 16.7 and 50 nM): de-repressed the expression of the luciferase reporter, in a dose-dependent fashion
